# According to patent US20240285624A1, “ERK1/2 OR SHP2 INHIBITORS AND FLT3 INHIBITORS COMBINATION THERAPY” (Erasca, Inc., priority 2021, published 2024):
# Key:
# [1] = tested on: ERK1/2 phosphorylation in MOLM-14 cells; assay: Western blot of phosphorylated ERK1/2; assay type: cell-based; conditions: compound 2 alone, 4 hours, relative to DMSO treated control cells
# Experimental: (§1) Western blotting: Cells were lysed on ice for 10 minutes with Thermo Fisher RIPA lysis buffer with protease and phosphatase inhibitors. The cells were centrifuged at 4° for 10 minutes with a microcentrifuge. The supernatant was transferred to pre-chilled microcentrifuge tube and protein concentration of the lysate was measured using BCA method. Cell lysate supematants of equal-amount of proteins were used for immunoblotting.
# (§2) FIG. 3A is a Western blot showing compound 2 and gilteritinib combination induced downregulation of ERK1/2 phosphorylation in MOLM-14 cells. FIG. 3B is a bar plot quantifying the results of […]. The cell lines, MOLM14 and MV-4-11 were split onto a 6 well plate and treated with compound 2 and gilteritinib alone, and in combination as indicated (FIGS. 3A/B and 4A/B). After 4 hours treatment, cells were lysed and immunoblotted for phosphorylated ERK1/2. […] The phosphorylated ERK1/2 bands were quantified by using Bio-Rad Image Lab software and normalized by total ERK.
# [2] = tested on: ERK1/2 phosphorylation in MV-4-11 cells; assay: Western blot of phosphorylated ERK1/2; assay type: cell-based; conditions: compound 2 alone, 4 hours, relative to DMSO treated control cells
# Experimental: as §1, §2
# FIG. 4A is a Western blot showing compound 2 and gilteritinib combination induced downregulation of ERK1/2 phosphorylation in MV-4-11 cells. FIG. 4B is a bar plot quantifying the results of […]. […] The phosphorylated ERK1/2 bands were quantified by using Bio-Rad Image Lab software and normalized by total ERK.
# [3] = tested on: MOLM-13 subcutaneous CDX model; assay: In vivo tumor growth, FLT3-ITD mutated AML subcutaneous CDX model MOLM-13; set-up: species or system Balb/c nude mice; conditions: compound 2 15 or 30 mg/kg PO QD; groups terminated on treatment day 12
# Experimental: The vehicle/control article, 100 mM acetic acid in deionized water, with pH adjustment to 4.8-5.0, was prepared and stored under ambient conditions throughout the 42-day administration in mice.
# The test article, compound 2, was freshly prepared in vehicle of 100 mM acetic buffer weekly and stored under ambient conditions. The combination agent gilteritinib was prepared weekly in vehicle of 0.5% Methyl Cellulose & 0.1% Tween 80 Solution weekly and stored under ambient conditions.
# Female Balb/c nude mice were between 6-8 weeks of age at the time of implantation. Mice were hosted in a special pathogen-free (SPF) environment of the vivarium facility and acclimated to their new environment for at least 3 days prior to initiation of any experiments according to IACUC protocol.
# MOLM-13 was AML cell line that harbored a FLT3-ITD mutation. MOLM-13 cells were cultured in medium containing RPMI1640 plus 10% Fetal Bovine Serum (FBS) and 1% Antibiotic-Antimycotic (AA), at 37° C. in an atmosphere of 5% CO2 in air. The medium was renewed every 2 to 3 days and tumor cells were routinely sub-cultured at a confluence of 80-90% by trypsin-EDTA. Cells growing in an exponential growth phase were harvested and counted for inoculation. […] Animal health and tumor growth were monitored daily. Tumor volume was measured twice a week by caliper when tumors were palpable and measurable. […]
smiles,measurement,setting,value
"COCOC[C@H]1C[C@H]2COc3c(Sc4cnc(N5CCC6(CC5)CO[C@@H](C)[C@H]6N)c(CO)n4)ccnc3N2C1 [compound 2, (3-((3S,4S)-4-amino-3-methyl-2-oxa-8-azaspiro[4.5]decan-8-yl)-6-(((6aS,8S)-8-((methoxymethoxy)methyl)-6a,7,8,9-tetrahydro-6H-pyrido[3,2-b]pyrrolo[1,2-d][1,4]oxazin-4-yl)thio)pyrazin-2-yl)methanol]",inhibition of ERK1/2 phosphorylation (immunoblot),[1],about 30%
same,inhibition of ERK1/2 phosphorylation (immunoblot),[2],about 50%
same,tumor growth under monotherapy (group termination),[3],rapid tumor growth
